Literature values as cited in patent US20150037408A1, “Delayed Release Pharmaceutical Compositions of Salsalate” (priority 2012, published 2015).

Columns and labels:
[1] = 3 grams daily (two 750-mg tablets twice daily) for 15 days
[2] = patients with osteoarthrosis of the hip or knee

O=C(Oc1ccccc1C(=O)O)c1ccccc1O [Salsalate, 2-hydroxybenzoic acid 2-carboxyphenyl ester]
efficacy and safety in arthritic disease [1]: effective and safe in ameliorating the symptoms of arthritic disease | clinical improvement versus aspirin [2]: comparable clinical improvement to that with aspirin | side-effects and faecal occult blood loss versus aspirin [2]: significantly superior to aspirin
